System: 439559-082-T-J2-PDC spheroid viability
Experiment: Anticancer human tumor 439559-082-T-J2-PDC patient-derived colon adenocarcinoma cell line growth inhibition [POLQ]
Conditions: spheroids with HUVEC and MSC; for IC50: curve of first compound; for viability, T/C: stronger effect = lower value
How it was run: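 Patient-derived tumour cells were co-cultured with HUVEC and mesenchymal stem cells as multicellular spheroids at 37 °C. They were treated with POLQ inhibitors (novobiocin, ART-558, RP6685) alone or combined with other agents. Top concentrations were at or near clinical Cmax (otherwise 10 microM; SN-38 at 1 microM), decreasing in half-log steps.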
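Also: spheroids exposed to compounds for seven days before readout.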
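For viability, T/C in this document: 100% = DMSO vehicle control viability.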

In the case of `CNCc1ccc(-c2[nH]c3cc(F)cc4c3c2CCNC4=O)cc1` + COC1C(OC(N)=O)C(O)C(Oc2ccc3c(O)c(NC(=O)c4ccc(O)c(CC=C(C)C)c4)c(=O)oc3c2C)OC1(C)C, the IC50 (second compound 0.0316 µM) is reported as greater than 10 µM, the IC50 (second compound 0.1 µM) is reported as greater than 10 µM and the IC50 (second compound 0.316 µM) is reported as greater than 10 µM. For the same molecule, the IC50 (second compound 1 µM) was greater than 10 µM, the IC50 (second compound 3.16 µM) was greater than 10 µM and the IC50 (second compound 10 µM) was greater than 10 µM. The viability, T/C (second compound 0.0316 µM, first compound 0.0316 µM) was 103%, the viability, T/C (second compound 0.0316 µM, first compound 0.1 µM) was 98.7% and the viability, T/C (second compound 0.0316 µM, first compound 0.316 µM) was 99.4%. It also gave a viability, T/C (second compound 0.0316 µM, first compound 1 µM) of 101%, a viability, T/C (second compound 0.0316 µM, first compound 3.16 µM) of 106% and a viability, T/C (second compound 0.0316 µM, first compound 10 µM) of 102%. For the same molecule, the viability, T/C (second compound 0.1 µM, first compound 0.0316 µM) was 101%, the viability, T/C (second compound 0.1 µM, first compound 0.1 µM) was 107% and the viability, T/C (second compound 0.1 µM, first compound 0.316 µM) was 91.7%. The viability, T/C (second compound 0.1 µM, first compound 1 µM) was 99.7%, the viability, T/C (second compound 0.1 µM, first compound 3.16 µM) was 105% and the viability, T/C (second compound 0.1 µM, first compound 10 µM) was 108%. The viability, T/C (second compound 0.316 µM, first compound 0.0316 µM) was 104%, the viability, T/C (second compound 0.316 µM, first compound 0.1 µM) was 96% and the viability, T/C (second compound 0.316 µM, first compound 0.316 µM) was 98.3%. It also gave a viability, T/C (second compound 0.316 µM, first compound 1 µM) of 108%, a viability, T/C (second compound 0.316 µM, first compound 3.16 µM) of 110% and a viability, T/C (second compound 0.316 µM, first compound 10 µM) of 105%. It also gave a viability, T/C (second compound 1 µM, first compound 0.0316 µM) of 108%, a viability, T/C (second compound 1 µM, first compound 0.1 µM) of 103% and a viability, T/C (second compound 1 µM, first compound 0.316 µM) of 106%. For the same molecule, the viability, T/C (second compound 1 µM, first compound 1 µM) was 98.1%, the viability, T/C (second compound 1 µM, first compound 3.16 µM) was 111% and the viability, T/C (second compound 1 µM, first compound 10 µM) was 108%. The viability, T/C (second compound 3.16 µM, first compound 0.0316 µM) was 108%, the viability, T/C (second compound 3.16 µM, first compound 0.1 µM) was 103% and the viability, T/C (second compound 3.16 µM, first compound 0.316 µM) was 97.4%. For the same molecule, the viability, T/C (second compound 3.16 µM, first compound 1 µM) was 95.8%, the viability, T/C (second compound 3.16 µM, first compound 3.16 µM) was 114% and the viability, T/C (second compound 3.16 µM, first compound 10 µM) was 105%. For the same molecule, the viability, T/C (second compound 10 µM, first compound 0.0316 µM) was 99.5%, the viability, T/C (second compound 10 µM, first compound 0.1 µM) was 93.7% and the viability, T/C (second compound 10 µM, first compound 0.316 µM) was 95.4%. For the same molecule, the viability, T/C (second compound 10 µM, first compound 1 µM) was 104%, the viability, T/C (second compound 10 µM, first compound 3.16 µM) was 115% and the viability, T/C (second compound 10 µM, first compound 10 µM) was 98.4%.

Reference: PubChem BioAssay AID1963841 (Molecular Pharmacology Branch, DTP, NCI, 2024)
